From EP1025114B1, “3'-N-MODIFIED 6-O-SUBSTITUTED ERYTHROMYCIN KETOLIDE DERIVATIVES HAVING ANTIBACTERIAL ACTIVITY” (priority 1997, dated 1999)
Values after ≈ are worked out from the molar mass of the structure shown.

Key:
Assay in all cases: In vitro antibacterial activity, agar dilution MIC
Assay type in all cases: cell-based
[1] = tested on: Streptococcus Pheumoniae ATCC6303; conditions: Streptococcus Pheumoniae ATCC6303 (organism code XX); BHI agar, 35-37 °C, 20 to 24 hours; unit assumed
Description: (§1) Representative compounds of the present invention were assayed in vitro for antibacterial activity as follows: Twelve petri dishes containing successive aqueous dilutions of the test compound mixed with 10 mL of sterilized Brain Heart infusion (BHI) agar (Difco 0418-01-5) were prepared. Each plate was inoculated with 1:100 (or 1:10 for slow-growing strains, such as Micrococcus and Streptococcus) dilutions of up to 32 different microorganisms, using a Steers replicator block. […] In addition, a control plate, using BHI agar containing no test compound, was prepared and incubated at the beginning and end of each test.
(§2) An additional plate containing a compound having known susceptibility patterns for the organisms being tested and belonging to the same antibiotic class as the test compound was also prepared and incubated as a further control, as well as to provide test-to-test comparability.
(§3) After incubation, each plate was visually inspected. The minimum inhibitory concentration (MIC) was defined as the lowest concentration of drug yielding no growth, a slight haze, or sparsely isolated colonies on the inoculum spot as compared to the growth control.

[2] = tested on: Staphylococcus epidermidis 3519; conditions: Staphylococcus epidermidis 3519 (organism code HH); BHI agar, 35-37 °C, 20 to 24 hours; unit assumed
Description: as §1, §2, §3

[3] = tested on: Enterococcus faecium ATCC 8043; conditions: Enterococcus faecium ATCC 8043 (organism code II); BHI agar, 35-37 °C, 20 to 24 hours; unit assumed
Description: as §1, §2, §3

[4] = tested on: Streptococcus pyogenes 930; conditions: Streptococcus pyogenes 930 (organism code MM); BHI agar, 35-37 °C, 20 to 24 hours; unit assumed
Description: as §1, §2, §3

[5] = tested on: Nocardia Asteroides ATCC9970; conditions: Nocardia Asteroides ATCC9970 (organism code VV); BHI agar, 35-37 °C, 20 to 24 hours; unit assumed
Description: as §1, §2, §3

[6] = tested on: Staphylococcus aureus ATCC 6538P; conditions: Staphylococcus aureus ATCC 6538P (organism code AA); BHI agar, 35-37 °C, 20 to 24 hours; unit assumed
Description: as §1, §2, §3

[7] = tested on: Staphylococcus aureus NCTC10649M; conditions: Staphylococcus aureus NCTC10649M (organism code EE); BHI agar, 35-37 °C, 20 to 24 hours; unit assumed
Description: as §1, §2, §3

[8] = tested on: Staphylococcus aureus A-5278; conditions: Staphylococcus aureus A-5278 (organism code CC); BHI agar, 35-37 °C, 20 to 24 hours; unit assumed
Description: as §1, §2, §3

[9] = tested on: Staphylococcus aureus CMX 642A; conditions: Staphylococcus aureus CMX 642A (organism code DD); BHI agar, 35-37 °C, 20 to 24 hours; unit assumed
Description: as §1, §2, §3

[10] = tested on: Streptococcus pyogenes EES61; conditions: Streptococcus pyogenes EES61 (organism code LL); BHI agar, 35-37 °C, 20 to 24 hours; unit assumed
Description: as §1, §2, §3

[11] = tested on: Haemophilis Influenzae DILL AMP R; conditions: Haemophilis Influenzae DILL AMP R (organism code WW); BHI agar, 35-37 °C, 20 to 24 hours; unit assumed
Description: as §1, §2, §3

[12] = tested on: Streptococcus agalactiae CMX 508; conditions: Streptococcus agalactiae CMX 508 (organism code KK); BHI agar, 35-37 °C, 20 to 24 hours; unit assumed
Description: as §1, §2, §3

[13] = tested on: Micrococcus luteus ATCC 4698; conditions: Micrococcus luteus ATCC 4698 (organism code PP); BHI agar, 35-37 °C, 20 to 24 hours; unit assumed
Description: as §1, §2, §3

[14] = tested on: Mycobacterium smegmatis ATCC 114; conditions: Mycobacterium smegmatis ATCC 114 (organism code UU); BHI agar, 35-37 °C, 20 to 24 hours; unit assumed
Description: as §1, §2, §3

[15] = tested on: Streptococcus Pheumoniae 5649; conditions: Streptococcus Pheumoniae 5649 (organism code ZZA); BHI agar, 35-37 °C, 20 to 24 hours; unit assumed
Description: as §1, §2, §3

[16] = tested on: Streptococcus pyogenes PIU 2548; conditions: Streptococcus pyogenes PIU 2548 (organism code NN); BHI agar, 35-37 °C, 20 to 24 hours; unit assumed
Description: as §1, §2, §3

[17] = tested on: Streptococcus bovis A-5169; conditions: Streptococcus bovis A-5169 (organism code JJ); BHI agar, 35-37 °C, 20 to 24 hours; unit assumed
Description: as §1, §2, §3

Candida albicans CCH 442 = Candida albicans CCH 442 (organism code TT); BHI agar, 35-37 °C, 20 to 24 hours; unit assumed
Description: as §1, §2, §3

Escherichia coli JUHL = Escherichia coli JUHL (organism code QQ); BHI agar, 35-37 °C, 20 to 24 hours; unit assumed
Description: as §1, §2, §3

[18] = tested on: Staphylococcus aureus A5177; conditions: Staphylococcus aureus A5177 (organism code BB); BHI agar, 35-37 °C, 20 to 24 hours; unit assumed
Description: as §1, §2, §3

[19] = tested on: Staphylococcus aureus CMX 553; conditions: Staphylococcus aureus CMX 553 (organism code FF); BHI agar, 35-37 °C, 20 to 24 hours; unit assumed
Description: as §1, §2, §3

Escherichia coli SS = Escherichia coli SS (organism code RR); BHI agar, 35-37 °C, 20 to 24 hours; unit assumed
Description: as §1, §2, §3

[20] = tested on: Staphylococcus aureus 1775; conditions: Staphylococcus aureus 1775 (organism code GG); BHI agar, 35-37 °C, 20 to 24 hours; unit assumed
Description: as §1, §2, §3

Escherichia coli DC-2 = Escherichia coli DC-2 (organism code SS); BHI agar, 35-37 °C, 20 to 24 hours; unit assumed
Description: as §1, §2, §3

[21] = tested on: Micrococcus luteus ATCC 9341; conditions: Micrococcus luteus ATCC 9341 (organism code OO); BHI agar, 35-37 °C, 20 to 24 hours; unit assumed
Description: as §1, §2, §3

[22] = tested on: Streptococcus Pheumoniae GYR 1171; conditions: Streptococcus Pheumoniae GYR 1171 (organism code YY); BHI agar, 35-37 °C, 20 to 24 hours; unit assumed
Description: as §1, §2, §3

[23] = tested on: Streptococcus Pheumoniae 5979; conditions: Streptococcus Pheumoniae 5979 (organism code ZZ); BHI agar, 35-37 °C, 20 to 24 hours; unit assumed
Description: as §1, §2, §3

Structure (SMILES) | MIC [1] | MIC [2] | MIC [3] | MIC [4] | MIC [5] | MIC [6] | MIC [7] | MIC [8] | MIC [9] | MIC [10] | MIC [12] | MIC [13] | MIC [14] | MIC [15] | MIC [16] | MIC [17] | MIC (Candida albicans CCH 442) | MIC (Escherichia coli JUHL) | MIC [18] | MIC [19] | also measured
CC[C@H]1OC(=O)[C@H](C)[C@@H](O[C@H]2C[C@@](C)(OC)[C@@H](O)[C@H](C)O2)[C@H](C)[C@@H](O[C@@H]2O[C@H](C)C[C@H](N(C)C)[C@H]2O)[C@](C)(O)C[C@@H](C)C(=O)[C@H](C)[C@@H](O)[C@]1(C)O [Ery. A, Erythromycin A, reference compound] | 0.06 µg/mL (≈ 0.0818 µM) | 0.39 µg/mL (≈ 0.531 µM) | 0.05 µg/mL (≈ 0.0681 µM) | > 100 µg/mL | 0.1 µg/mL (≈ 0.136 µM) | 0.2 µg/mL (≈ 0.273 µM) | 0.39 µg/mL (≈ 0.531 µM) | > 100 µg/mL | 0.39 µg/mL (≈ 0.531 µM) | 0.05 µg/mL (≈ 0.0681 µM) | 0.05 µg/mL (≈ 0.0681 µM) | 0.2 µg/mL (≈ 0.273 µM) | 3.1 µg/mL (≈ 4.22 µM) | 16 µg/mL (≈ 21.8 µM) | 6.2 µg/mL (≈ 8.45 µM) | 0.02 µg/mL (≈ 0.0273 µM) | > 100 µg/mL | > 100 µg/mL | 3.1 µg/mL (≈ 4.22 µM) | 0.39 µg/mL (≈ 0.531 µM) | MIC [11]: 4 µg/mL (≈ 5.45 µM); MIC (Escherichia coli SS): 0.78 µg/mL (≈ 1.06 µM); MIC [20]: > 100 µg/mL; MIC (Escherichia coli DC-2): > 100 µg/mL; MIC [21]: 0.05 µg/mL (≈ 0.0681 µM); MIC [22]: 0.06 µg/mL (≈ 0.0818 µM)
C#CCN(C)[C@H]1C[C@@H](C)O[C@@H](O[C@@H]2[C@@H](C)C(=O)[C@@H](C)C(=O)O[C@H](CC)[C@@]3(C)OC(=O)N[C@@H]3[C@@H](C)C(=O)[C@H](C)C[C@@]2(C)OCC=Cc2cnc3ccccc3c2)[C@@H]1O [Example 10, Compound of Formula (II); R is -CH2CH=CH-(3-quinolyl), R^p is H, W is absent, R^w is H, R^1 is CH2-C≡CH, R^2 is CH3-] | 0.03 µg/mL | 0.2 µg/mL | 0.05 µg/mL | 6.2 µg/mL | 0.2 µg/mL | 0.2 µg/mL | 0.1 µg/mL | > 100 µg/mL | 0.2 µg/mL | 0.01 µg/mL | 0.01 µg/mL | 0.39 µg/mL | 1.56 µg/mL | 0.25 µg/mL | 0.39 µg/mL | 0.02 µg/mL | > 100 µg/mL | > 100 µg/mL | 0.39 µg/mL | 0.2 µg/mL | MIC [23]: 32 µg/mL; MIC (Escherichia coli SS): 1.56 µg/mL; MIC [20]: > 100 µg/mL; MIC (Escherichia coli DC-2): > 100 µg/mL; MIC [21]: 0.1 µg/mL; MIC [22]: 0.03 µg/mL
CC[C@H]1OC(=O)[C@H](C)C(=O)[C@H](C)[C@@H](O[C@@H]2O[C@H](C)C[C@H](N(C)C3CC3)[C@H]2O)[C@](C)(OCC=Cc2cnc3ccccc3c2)C[C@@H](C)C(=O)[C@H](C)[C@H]2NC(=O)O[C@@]21C [Example 13, Compound of Formula (II); R is -CH2CH=CH-(3-quinolyl), R^p is H, W is absent, R^w is H, R^1 is cyclopropyl, R^2 is CH3] | 0.03 µg/mL | 3.1 µg/mL | 0.39 µg/mL | > 100 µg/mL | 3.1 µg/mL | 1.56 µg/mL | 3.1 µg/mL | > 100 µg/mL | 1.56 µg/mL | 0.1 µg/mL | 0.2 µg/mL | 0.78 µg/mL | 3.1 µg/mL | 0.25 µg/mL | 0.39 µg/mL | 0.2 µg/mL | 50 µg/mL | > 100 µg/mL | 3.1 µg/mL | 1.56 µg/mL | MIC [23]: 16 µg/mL; MIC (Escherichia coli SS): 3.1 µg/mL; MIC [20]: > 100 µg/mL; MIC (Escherichia coli DC-2): > 100 µg/mL; MIC [21]: 0.39 µg/mL; MIC [22]: 0.03 µg/mL
CC[C@H]1OC(=O)[C@H](C)C(=O)[C@H](C)[C@@H](O[C@@H]2O[C@H](C)C[C@H](N(C)Cc3cccnc3)[C@H]2O)[C@](C)(OCC=Cc2cnc3ccccc3c2)C[C@@H](C)C(=O)[C@H](C)[C@H]2NC(=O)O[C@@]21C [Example 21, Compound of Formula (II); R is -CH2CH=CH-(3-quinolyl), R^p is H, W is absent, R^w is H, R^1 is CH2-(3-pyridyl), R^2 is CH3] |  |  |  |  |  |  |  |  |  |  |  |  |  |  |  |  |  |  |  |  | MIC [11]: 4 µg/mL
CC[C@H]1OC(=O)[C@H](C)C(=O)[C@H](C)[C@@H](O[C@@H]2O[C@H](C)C[C@H](N(C)Cc3cccc(O)c3)[C@H]2O)[C@](C)(OCC=Cc2cnc3ccccc3c2)C[C@@H](C)C(=O)[C@H](C)[C@H]2NC(=O)O[C@@]21C [Example 22, Compound of Formula (II); R is -CH2CH=CH-(3-quinolyl), R^p is H, W is absent, R^w is H, R^1 is CH2-(3-hydroxyphenyl), R^2 is CH3] | 0.03 µg/mL | 0.39 µg/mL | 0.1 µg/mL | 3.1 µg/mL | 0.2 µg/mL | 0.2 µg/mL | 0.39 µg/mL | > 100 µg/mL | 0.39 µg/mL | 0.1 µg/mL | 0.1 µg/mL | 0.1 µg/mL | 0.78 µg/mL | 0.25 µg/mL | 0.1 µg/mL | 0.1 µg/mL | > 100 µg/mL | > 100 µg/mL | 0.39 µg/mL | 0.39 µg/mL | MIC [11]: 4 µg/mL; MIC (Escherichia coli SS): 0.39 µg/mL; MIC [20]: > 100 µg/mL; MIC (Escherichia coli DC-2): > 100 µg/mL; MIC [21]: 0.1 µg/mL; MIC [22]: 0.03 µg/mL
